Here are results for 24 compounds from patent US10894788B2, “Inhibitors of cyclin-dependent kinases” (Kinnate Biopharma Inc., priority 2018, dated 2021).

Each structure is given as a SMILES string.

What is called IC50 is the concentration needed to halve the response being measured.

Chain of CDK12 (Q9NYV4 whole entry): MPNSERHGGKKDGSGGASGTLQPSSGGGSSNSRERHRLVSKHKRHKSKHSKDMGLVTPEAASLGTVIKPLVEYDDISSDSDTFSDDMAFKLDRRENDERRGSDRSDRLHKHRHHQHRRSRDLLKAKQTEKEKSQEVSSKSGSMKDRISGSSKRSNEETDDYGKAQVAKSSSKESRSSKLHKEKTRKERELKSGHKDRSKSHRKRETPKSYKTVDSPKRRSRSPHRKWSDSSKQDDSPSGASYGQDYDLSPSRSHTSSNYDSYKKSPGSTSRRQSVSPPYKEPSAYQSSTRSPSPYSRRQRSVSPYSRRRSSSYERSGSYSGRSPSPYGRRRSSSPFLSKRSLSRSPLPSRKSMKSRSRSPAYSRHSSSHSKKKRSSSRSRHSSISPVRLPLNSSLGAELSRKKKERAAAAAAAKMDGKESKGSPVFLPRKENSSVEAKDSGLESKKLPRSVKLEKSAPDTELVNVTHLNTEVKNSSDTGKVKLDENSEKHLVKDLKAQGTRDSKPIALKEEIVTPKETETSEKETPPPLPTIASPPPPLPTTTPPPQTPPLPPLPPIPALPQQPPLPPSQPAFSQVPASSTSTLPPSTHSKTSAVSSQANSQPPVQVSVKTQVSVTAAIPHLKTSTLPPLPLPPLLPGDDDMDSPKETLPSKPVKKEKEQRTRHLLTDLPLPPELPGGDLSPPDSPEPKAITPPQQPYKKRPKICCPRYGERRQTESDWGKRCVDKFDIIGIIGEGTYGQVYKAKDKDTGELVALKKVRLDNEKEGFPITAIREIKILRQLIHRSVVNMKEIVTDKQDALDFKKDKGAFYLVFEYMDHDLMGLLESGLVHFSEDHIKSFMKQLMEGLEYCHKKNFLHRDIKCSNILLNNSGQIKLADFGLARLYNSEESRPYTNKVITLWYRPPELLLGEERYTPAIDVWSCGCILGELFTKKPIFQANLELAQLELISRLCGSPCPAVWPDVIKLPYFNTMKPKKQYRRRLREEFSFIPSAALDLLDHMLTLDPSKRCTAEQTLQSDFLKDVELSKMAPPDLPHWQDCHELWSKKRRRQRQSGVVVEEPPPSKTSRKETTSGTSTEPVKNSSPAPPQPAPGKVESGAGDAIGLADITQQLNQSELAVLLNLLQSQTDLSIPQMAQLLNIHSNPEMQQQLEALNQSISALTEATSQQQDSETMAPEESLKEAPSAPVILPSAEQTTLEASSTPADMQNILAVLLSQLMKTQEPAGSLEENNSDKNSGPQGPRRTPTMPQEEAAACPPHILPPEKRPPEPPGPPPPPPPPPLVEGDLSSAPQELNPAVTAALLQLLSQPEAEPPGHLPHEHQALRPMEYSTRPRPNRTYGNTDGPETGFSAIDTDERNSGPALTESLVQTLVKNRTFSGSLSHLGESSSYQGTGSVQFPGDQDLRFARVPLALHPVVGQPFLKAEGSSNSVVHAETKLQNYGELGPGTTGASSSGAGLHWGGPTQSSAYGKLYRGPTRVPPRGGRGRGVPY
Chain of CDK12 (O75909 whole entry partner): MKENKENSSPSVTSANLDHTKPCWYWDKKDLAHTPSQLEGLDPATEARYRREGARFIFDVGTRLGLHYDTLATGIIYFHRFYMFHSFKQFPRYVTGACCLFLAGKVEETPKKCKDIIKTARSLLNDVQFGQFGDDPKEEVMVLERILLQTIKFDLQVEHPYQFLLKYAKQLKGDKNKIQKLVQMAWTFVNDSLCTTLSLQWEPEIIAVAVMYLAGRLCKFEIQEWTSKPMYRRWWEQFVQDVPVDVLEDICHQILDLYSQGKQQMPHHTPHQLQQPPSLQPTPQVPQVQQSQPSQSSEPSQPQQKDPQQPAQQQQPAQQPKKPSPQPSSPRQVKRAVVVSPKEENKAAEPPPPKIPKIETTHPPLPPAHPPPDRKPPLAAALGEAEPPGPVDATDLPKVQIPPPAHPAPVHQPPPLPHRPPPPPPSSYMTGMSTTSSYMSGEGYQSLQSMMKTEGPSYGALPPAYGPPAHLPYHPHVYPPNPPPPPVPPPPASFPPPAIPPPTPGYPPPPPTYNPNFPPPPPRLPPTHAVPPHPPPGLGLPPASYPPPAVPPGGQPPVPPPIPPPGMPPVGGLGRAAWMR

The experiment has as its target CDK12 (Homo sapiens (Human), UniProt Q9NYV4). Briefly: Radiometric protein kinase assay (33PanQinase Activity Assay), Assay Condition B (thiol-free conditions). The note with it: thiol-free conditions (1 mM TCEP, glutathione removed). The experiment is classed as biochemical. On the procedure: Example 2—Assay Condition B (Thiol-Free Conditions)
The IC50 profile of compounds was determined using one protein kinase in a customized, thiol free assay. […] Prior to testing, the 1×10^−03 M stock solutions in column 2 of the master plates were subjected to a serial, semi-logarithmic dilution using 100% DMSO as a solvent. […] Column 1 and 7 were filled with 100% DMSO as controls. Subsequently, 2×10 microliter from each well of the serial diluted copy plates were aliquoted with a 96 channel pipettor into two identical sets of “compound dilution plates”. All plates were barcoded for automated identification and tracking purposes. […] All compounds were stored as powder until being solubilized in DMSO. Solubilized compounds were stored as 1×10^−02 M/100% DMSO stock solutions. Prior to the assay process, 90 microliters of H2O were added to each well of a set of compound dilution plates. To minimize potential precipitation, the H2O was added to each plate only a few minutes before the transfer of the compound solutions into the assay plates. Each plate was shaken thoroughly, resulting in compound dilution plates with a final of 10% DMSO. For each assay, 5 microliters of solution from each well of the compound dilution plates/10% DMSO were transferred into the assay plate. The final volume of the assay was 50 μl. All compounds were tested at 10 final assay concentrations in the range from 1×10^−05 M to 3×10^−10 M, in singlicate. The final DMSO concentration in the reaction cocktails was 1% in all cases. A radiometric protein kinase assay (33PanQinase® Activity Assay) was used for measuring the kinase activity of the protein kinase. All kinase assays were performed in 96-well FlashPlates™ from PerkinElmer (Boston, Mass., USA) in a 50 microliter reaction volume. The reaction cocktail was pipetted in four steps in the following order: 20 microliter of assay buffer (standard buffer)·5 microliter of ATP solution (in H2O)·5 microliter of test compound (in 10% DMSO)·20 microliter enzyme/substrate mix. […] For all experiments labeled as “Thiol-free”, all glutathione was exchanged from protein preparations so as to be removed from the assay and final buffer conditions contained no thiol-containing reagents. This was done so there would be no interference with the key cysteines in the proteins of interest.
For data analysis, the median value of the counts in column 1 (n=8) of each assay plate was defined as “low control”. This value reflects unspecific binding of radioactivity to the plate in the absence of a protein kinase but in the presence of the substrate. The median value of the counts in column 7 of each assay plate (n=8) was taken as the “high control”, i.e. full activity in the absence of any inhibitor. The difference between high and low control was taken as 100% activity. As part of the data evaluation the low control value from a particular plate was subtracted from the high control value as well as from all 80 “compound values” of the corresponding plate. The residual activity (in %) for each well of a particular plate was calculated by using the following formula: Res. Activity (%)=100×[(cpm of compound−low control)/(high control−low control)]
The residual activities for each concentration and the compound IC50 values were calculated using Quattro Workflow V3.1.1 (Quattro Research GmbH, Munich, Germany; www.quattro-research.com). […] The fitting method used was a least-squares fit. As a parameter for assay quality, the Z′-factor (Zhang et al., J. Biomol. Screen. 2: 67-73, 1999) for the low and high controls of each assay plate (n=8) was used. ProQinase's criterion for repetition of an assay plate is a Z′-factor below 0.4 (Iversen et al., J. Biomol. Screen. 3: 247-252, 2006).
For the compound `C=CC(=O)Nc1ccc(C(=O)N2CC[C@@H](Nc3ncc(Cl)c(OC)n3)C2)cc1N1CCCCC1` [Example 11, (R)—N-(4-(3-((5-chloro-4-methoxypyrimidin-2-yl)amino)pyrrolidine-1-carbonyl)-2-(piperidin-1-yl)phenyl)acrylamide], the IC50 was less than 100 nM.
With `C=CC(=O)Nc1ccc(C(=O)N2CC[C@@H](Nc3ncc(Br)cn3)C2)cc1C` [Example 76, (R)—N-(4-(3-((5-bromopyrimidin-2-yl)amino)pyrrolidine-1-carbonyl)-2-methylphenyl)acrylamide] the figure was less than 100 nM; with `CCC(=O)Nc1ccc(C(=O)N2CC[C@@H](Nc3ncc(Cl)c(OC4CC4)n3)C2)cc1` [Example 15, (R)—N-(4-(3-((5-chloro-4-cyclopropoxypyrimidin-2-yl)amino)pyrrolidine-1-carbonyl)phenyl)propionamide], 100 to 1000 nM; with `C=CC(=O)Nc1ccc(C(=O)N2CC[C@@H](Nc3ccc(C4CC4)cn3)C2)cc1` [Example 85, (R)—N-(4-(3-((5-cyclopropylpyridin-2-yl)amino)pyrrolidine-1-carbonyl)phenyl)acrylamide], 100 to 1000 nM.
With `CCC(=O)Nc1ccc(C(=O)N2CC[C@@H](Nc3ncc(Cl)c(OCC(F)(F)F)n3)C2)cc1` [Example 18, (R)—N-(4-(3-((5-chloro-4-(2,2,2-trifluoroethoxy)pyrimidin-2-yl)amino)pyrrolidine-1-carbonyl)phenyl)propionamide], the concentration for half-maximal inhibition (IC50) lay in the range of 100 to 1000 nM.
As for `C=CC(=O)Nc1ccc(C(=O)N2CC[C@@H](Nc3ncc(Cl)c(OC)n3)C2)cc1N1CCOCC1` [Example 68, (R)—N-(4-(3-((5-chloro-4-methoxypyrimidin-2-yl)amino)pyrrolidine-1-carbonyl)-2-morpholinophenyl)acrylamide], the figure is less than 100 nM; as for `C=CC(=O)Nc1ccc(C(=O)N2CC[C@@H](Nc3ncc(Cl)c(OC)n3)C2)cc1N1CCN(C)CC1` [Example 9, (R)-N-(4-(3-((5-chloro-4-methoxypyrimidin-2-yl)amino)pyrrolidine-1-carbonyl)-2-(4-methylpiperazin-1-yl)phenyl)acrylamide], less than 100 nM; as for `C=C(CC)C(=O)Nc1ccc(C(=O)N2CC[C@@H](Nc3ncc(Cl)cn3)C2)cc1` [Example 83, (R)—N-(4-(3-((5-chloropyrimidin-2-yl)amino)pyrrolidine-1-carbonyl)phenyl)-2-methylenebutanamide], 100 to 1000 nM.
Regarding `C=CC(=O)Nc1ccc(C(=O)N2CC[C@@H](Nc3nccc(Oc4cnn(C)c4)n3)C2)cc1` (stereo in doubt) [Example 46, N-(4-{3-[4-(1-Methyl-1H-pyrazol-4-yloxy)-pyrimidin-2-ylamino]-pyrrolidine-1-carbonyl}-phenyl)-acrylamide], the IC50 lay within 1000 to 10000 nM.
In turn, `C=CC(=O)Nc1ccc(C(=O)N2CC[C@@H](Nc3ncc(Cl)c(OC)n3)C2)cc1N1CCOCC1` [Example 10, (R)—N-(4-(3-((5-chloro-4-methoxypyrimidin-2-yl)amino)pyrrolidine-1-carbonyl)-2-morpholinophenyl)acrylamide] returned an IC50 of less than 100 nM.
In turn, `C=CC(=O)Nc1ccc(C(=O)N2CC[C@@H](Nc3ncc(F)c(OC4CC4)n3)C2)cc1` [Example 71, (R)—N-(4-(3-((4-cyclopropoxy-5-fluoropyrimidin-2-yl)amino)pyrrolidine-1-carbonyl)phenyl)acrylamide] showed an IC50 of 100 to 1000 nM.
Take `C=CC(=O)Nc1ccc(C(=O)N2CC[C@@H](Nc3ncc(Cl)cn3)C2)c(C)c1` [Example 32, (R)—N-(4-(3-((5-chloropyrimidin-2-yl)amino)pyrrolidine-1-carbonyl)-3-methylphenyl)acrylamide]: the half-maximal inhibitory concentration (IC50) was in the range of 100 to 1000 nM.
As for `C=CC(=O)Nc1ccc(C(=O)N2CC[C@@H](Nc3nccc(-c4cn[nH]c4)n3)C2)cc1` [Example 44, (R)—N-(4-(3-((4-(1H-pyrazol-4-yl)pyrimidin-2-yl)amino)pyrrolidine-1-carbonyl)phenyl)acrylamide], the figure is 100 to 1000 nM; as for `C=CC(=O)Nc1ccc(C(=O)N2CC[C@@H](Nc3ncc(C)cn3)C2)cc1` [Example 57, (R)—N-(4-(3-((5-methylpyrimidin-2-yl)amino)pyrrolidine-1-carbonyl)phenyl)acrylamide], 100 to 1000 nM; as for `C=CC(=O)N1CCc2cc(C(=O)N3CC[C@@H](Nc4ncc(Cl)c(OC)n4)C3)ccc21` [Example 27, (R)-1-(5-(3-((5-chloro-4-methoxypyrimidin-2-yl)amino)pyrrolidine-1-carbonyl)indolin-1-yl)prop-2-en-1-one], less than 100 nM.
`C=CC(=O)Nc1ccc(C(=O)N2CC[C@@H](Nc3ncc(Cl)cn3)C2)cc1OC` [Example 31, (R)—N-(4-(3-((5-chloropyrimidin-2-yl)amino)pyrrolidine-1-carbonyl)-2-methoxyphenyl)acrylamide] came in with a 50% inhibitory concentration (IC50) of less than 100 nM.
For the compound `CCC(=O)Nc1ccc(C(=O)N2CCC[C@@H](Nc3nccc(-c4cn[nH]c4)n3)C2)cc1` [Example 41, (R)—N-(4-(3-((4-(1H-pyrazol-4-yl)pyrimidin-2-yl)amino)piperidine-1-carbonyl)phenyl)propionamide], the half-inhibitory concentration (IC50) lay within 30000 to 100000 nM.
Compound `C=CC(=O)Nc1ccc(C(=O)N2CCC[C@@H](Nc3nccc(N4CCOCC4)n3)C2)cc1` [Example 36, (R)—N-(4-(3-((4-morpholinopyrimidin-2-yl)amino)piperidine-1-carbonyl)phenyl)acrylamide] came in with an IC50 of 30000 to 100000 nM.
Compound `CCC(=O)Nc1ccc(C(=O)N2CCC[C@@H](Nc3nccc(N4CCOCC4)n3)C2)cc1` [Example 42, (R)—N-(4-(3-((4-morpholinopyrimidin-2-yl)amino)piperidine-1-carbonyl)phenyl)propionamide] had an IC50 of 30000 to 100000 nM.
`C=CC(=O)Nc1c(C)cc(C(=O)N2CC[C@@H](Nc3ncc(Cl)cn3)C2)cc1C` [Example 33, (R)—N-(4-(3-((5-chloropyrimidin-2-yl)amino)pyrrolidine-1-carbonyl)-2,6-dimethylphenyl)acrylamide] gave an IC50 of 1000 to 10000 nM.
With `C=CC(=O)Nc1ccc(C(=O)N2CC[C@@H](Nc3ncc(Cl)c(OC)n3)C2)cc1-c1cnn(C)c1` [Example 82, (R)—N-(4-(3-((5-chloro-4-methoxypyrimidin-2-yl)amino)pyrrolidine-1-carbonyl)-2-(1-methyl-1H-pyrazol-4-yl)phenyl)acrylamide] the figure was 100 to 1000 nM.
Compound `C=CC(=O)Nc1ccc(C(=O)N2CC[C@@H](Nc3ncc(Cl)cn3)C2)cc1Cl` [Example 6, (R)-N-(2-chloro-4-(3-((5-chloropyrimidin-2-yl)amino)pyrrolidine-1-carbonyl)phenyl)acrylamide] displayed an IC50 of less than 100 nM.
Compound `C=CC(=O)Nc1ccc(C(=O)N2CC[C@@H](Nc3ncc(Cl)c(OC4CC4)n3)C2)cc1` [Example 56, (R)—N-(4-(3-((5-chloro-4-cyclopropoxypyrimidin-2-yl)amino)pyrrolidine-1-carbonyl)phenyl)acrylamide] gave a half-maximal inhibitory concentration (IC50) of less than 100 nM.
As for `C=CC(=O)Nc1ccc(C(=O)N2CC[C@@H](Nc3ncc(Cl)c(OCC(F)(F)F)n3)C2)cc1` [Example 24, (R)—N-(4-(3-((5-chloro-4-(2,2,2-trifluoroethoxy)pyrimidin-2-yl)amino)pyrrolidine-1-carbonyl)phenyl)acrylamide], the figure is less than 100 nM.
